Experimental data as given in US10358446B2, “Bruton's tyrosine kinase inhibitors” (Zibo Biopolar Changsheng Pharmaceutical Co. Ltd., priority 2015, dated 2019).

Biological target: BTK (Homo sapiens (Human), UniProt Q06187)
Assay: Btk kinase assay (HTRF)
Type: biochemical
Conditions: [ATP]=80 μM, BTK=3.4 nM; read-out: BTK Inhibition
Procedure, shortened: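 HTRF kinase read-out (665/615 nm ratio, excitation 330 nm) after EDTA quench and 1 h detection incubation. Reaction: 3.4 nM BTK, ATP 80 μM, peptide substrate 1 μM, compound, HEPES pH 7.0 buffer, 1 h; IC50 derived using uninhibited and enzyme-free controls.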

Chain of BTK (Q06187 whole entry, species assumed): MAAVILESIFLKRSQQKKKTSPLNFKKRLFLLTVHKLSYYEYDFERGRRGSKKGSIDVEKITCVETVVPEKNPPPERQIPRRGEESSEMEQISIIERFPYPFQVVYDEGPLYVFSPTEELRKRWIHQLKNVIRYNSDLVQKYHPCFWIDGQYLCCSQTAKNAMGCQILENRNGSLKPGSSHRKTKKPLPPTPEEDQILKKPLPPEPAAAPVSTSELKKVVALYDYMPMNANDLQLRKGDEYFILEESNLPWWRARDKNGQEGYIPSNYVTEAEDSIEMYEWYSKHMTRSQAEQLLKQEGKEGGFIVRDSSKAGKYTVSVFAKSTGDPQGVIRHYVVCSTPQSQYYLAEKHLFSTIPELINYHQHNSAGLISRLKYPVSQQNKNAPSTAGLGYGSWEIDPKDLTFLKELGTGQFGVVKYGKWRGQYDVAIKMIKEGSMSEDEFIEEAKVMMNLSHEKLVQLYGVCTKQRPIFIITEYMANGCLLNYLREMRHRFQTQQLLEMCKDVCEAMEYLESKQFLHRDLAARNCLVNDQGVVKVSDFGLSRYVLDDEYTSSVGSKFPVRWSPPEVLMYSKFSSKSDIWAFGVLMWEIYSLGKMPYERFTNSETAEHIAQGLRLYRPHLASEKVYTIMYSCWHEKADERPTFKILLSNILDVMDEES

SMILES | IC50
C=CC(=O)Nc1cccc(-n2c(=O)n(-c3cccc(Oc4ccccc4C)c3)c3cnccc32)c1 [Example 88, N-(3-(2-oxo-3-(3-(o-tolyloxy)phenyl)-2,3-dihydro-1H-imidazo[4,5-c]pyridin-1-yl)phenyl)acrylamide] | 10 to 100 nM
C=CC(=O)Nc1cccc(-n2c(=O)n(-c3cccc(Oc4ccccc4OC)c3)c3cnccc32)c1 [Example 89, N-(3-(3-(3-(2-methoxyphenoxy)phenyl)-2-oxo-2,3-dihydro-1H-imidazo[4,5-c]pyridin-1-yl)phenyl)acrylamide] | 10 to 100 nM
C=CC(=O)Nc1cccc(-n2c(=O)n(-c3ccc(Oc4cccc(F)c4)c(F)c3)c3cnccc32)c1 [Example 90, N-(3-(3-(3-fluoro-4-(3-fluorophenoxy)phenyl)-2-oxo-2,3-dihydro-1H-imidazo[4,5-c]pyridin-1-yl)phenyl)acrylamide] | 10 to 100 nM
C=CC(=O)N1CCC(n2c(=O)n(-c3ccc(Oc4ccccc4)c(C)c3)c3cnccc32)C1 (stereo not drawn) [Example 91, 1-(1-acryloylpyrrolidin-3-yl)-3-(3-methy1-4-phenoxyphenyl)-1,3-dihydro-2H-imidazo[4,5-c]pyridin-2-one] | 10 to 100 nM
C=CC(=O)N1CCC(n2c(=O)n(-c3ccc(Oc4cccc(OC)c4)c(C)c3)c3cnccc32)C1 (stereo not drawn) [Example 92, 1-(1-acryloylpyrrolidin-3-yl)-3-(4-(3-methoxyphenoxy)-3-methylphenyl)-1,3-dihydro-2H-imidazo[4,5-c]pyridin-2-one] | 10 to 100 nM
C=CC(=O)Nc1cccc(-n2c(=O)n(-c3ccc(Oc4ccccc4)c(F)c3)c3cnccc32)c1 [Example 93, N-(3-(3-(3-fluoro-4-phenoxyphenyl)-2-oxo-2,3-dihydro-1H-imidazo[4,5-c]pyridin-1-yl)phenyl)acrylamide] | ≤ 10 nM
C=CC(=O)Nc1cccc(-n2c(=O)n(-c3ccc(Oc4cccc(OC)c4)c(F)c3)c3cnccc32)c1 [Example 94, N-(3-(3-(3-fluoro-4-(3-methoxyphenoxy)phenyl)-2-oxo-2,3-dihydro-1H-imidazo[4,5-c]pyridin-1-yl)phenyl)acrylamide] | 10 to 100 nM
C=CC(=O)N1CC[C@@H](n2c(=O)n(-c3ccc(Oc4ccccc4)c(F)c3)c3cnccc32)C1 [Example 95, (R)-1-(1-acryloylpyrrolidin-3-yl)-3-(3-fluoro-4-phenoxyphenyl)-1,3-dihydro-2H-imidazo[4,5-c]pyridin-2-one] | 10 to 100 nM
C=CC(=O)Nc1cccc(-n2c(=O)n(-c3cccc(Oc4cccc(Cl)c4F)c3)c3cnccc32)c1 [Example 96, N-(3-(3-(3-(3-chloro-2-fluorophenoxy)phenyl)-2-oxo-2,3-dihydro-1H-imidazo[4,5-c]pyridin-1-yl)phenyl)acrylamide] | 10 to 100 nM
C=CC(=O)N1CC[C@@H](n2c(=O)n(-c3cccc(Oc4cccc(Cl)c4F)c3)c3cnccc32)C1 [Example 97, (R)-1-(1-acryloylpyrrolidin-3-yl)-3-(3-(3-chloro-2-fluorophenoxy)phenyl)-1,3-dihydro-2H-imidazo[4,5-c]pyridin-2-one] | 10 to 100 nM
C=CC(=O)Nc1cccc(-n2c(=O)n(-c3ccc(Oc4cccc(Cl)c4Cl)cc3)c3cnccc32)c1 [Example 98, N-(3-(3-(4-(2,3-dichlorophenoxy)phenyl)-2-oxo-2,3-dihydro-1H-imidazo[4,5-c]pyridin-1-yl)phenyl)acrylamide] | 10 to 100 nM
C=CC(=O)N1CC[C@@H](n2c(=O)n(-c3ccc(Oc4cccc(Cl)c4Cl)cc3)c3cnccc32)C1 [Example 99, (R)-1-(1-acryloylpyrrolidin-3-yl)-3-(4-(2,3-dichlorophenoxy)phenyl)-1,3-dihydro-2H-imidazo[4,5-c]pyridin-2-one] | 10 to 100 nM
C=CC(=O)N1CCC[C@@H](n2c(=O)n(-c3ccc(Oc4cccc(Cl)c4Cl)cc3)c3cnccc32)C1 [Example 100, (R)-1-(1-acryloylpiperidin-3-yl)-3-(4-(2,3-dichlorophenoxy)phenyl)-1,3-dihydro-2H-imidazo[4,5-c]pyridin-2-one] | 10 to 100 nM
C=CC(=O)N1CC[C@@H](n2c(=O)n(-c3ccc(Oc4cccc(Cl)c4F)c(F)c3)c3cnccc32)C1 [Example 101, (R)-1-(1-acryloylpyrrolidin-3-yl)-3-(4-(3-chloro-2-fluorophenoxy)-3-fluorophenyl)-1,3-dihydro-2H-imidazo[4,5-c]pyridin-2-one] | 10 to 100 nM
C=CC(=O)N1CC[C@@H](n2c(=O)n(-c3ccc(Oc4cccc(F)c4Cl)cc3)c3cnccc32)C1 [Example 102, (R)-1-(1-acryloylpyrrolidin-3-yl)-3-(4-(2-chloro-3-fluorophenoxy)phenyl)-1,3-dihydro-2H-imidazo[4,5-c]pyridin-2-one] | 10 to 100 nM
C=CC(=O)N1CC[C@@H](n2c(=O)n(-c3ccc(Oc4ccccn4)cc3)c3cnccc32)C1 [Example 104, (R)-1-(1-acryloylpyrrolidin-3-yl)-3-(4-(pyridin-2-yloxy)phenyl)-1,3-dihydro-2H-imidazo[4,5-c]pyridin-2-one] | 100 to 1000 nM
C=CC(=O)N1CCC[C@@H](n2c(=O)n(-c3ccc(Oc4cccc(C)c4)c(F)c3)c3cnccc32)C1 [Example 105, (R)-1-(1-acryloylpiperidin-3-yl)-3-(3-fluoro-4-(m-tolyloxy)phenyl)-1H-imidazo[4,5-c]pyridin-2(3H)-one] | 10 to 100 nM

SMILES | IC50
C=CC(=O)N1CCC[C@@H](n2c(=O)n(-c3ccc(Oc4cccc(Cl)c4)cc3)c3cnccc32)C1 [Example 106, (R)-1-(1-acryloylpiperidin-3-yl)-3-(4-(3-chlorophenoxy)phenyl)-1H-imidazo[4,5-c]pyridin-2(3H)-one] | 10 to 100 nM
C=CC(=O)N1CCC[C@@H](n2c(=O)n(-c3ccc(Oc4ccccc4)c(Cl)c3)c3cnccc32)C1 [Example 107, (R)-1-(1-acryloylpiperidin-3-yl)-3-(3-chloro-4-phenoxyphenyl)-1H-imidazo[4,5-c]pyridin-2(3H)-one] | 10 to 100 nM
C=CC(=O)N1CCC[C@@H](n2c(=O)n(-c3ccc(Oc4cccc(C)c4)c(Cl)c3)c3cnccc32)C1 [Example 108, (R)-1-(1-acryloylpiperidin-3-yl)-3-(3-chloro-4-(m-tolyloxy)phenyl)-1H-imidazo[4,5-c]pyridin-2(3H)-one] | 10 to 100 nM
O=C(/C=C/c1ccccc1)Nc1cccc(-n2c(=O)n(-c3ccc(Oc4ccccc4)cc3)c3cnccc32)c1 [Example 109, N-(3-(2-oxo-3-(4-phenoxyphenyl)-2,3-dihydro-1H-imidazo[4,5-c]pyridin-1-yl)phenyl)cinnamamide] | ≥ 10000 nM
C=C(C)C(=O)Nc1cccc(-n2c(=O)n(-c3ccc(Oc4ccccc4)cc3)c3cnccc32)c1 [Example 110, N-(3-(2-oxo-3-(4-phenoxyphenyl)-2,3-dihydro-1H-imidazo[4,5-c]pyridin-1-yl)phenyl)methacrylamide] | 100 to 1000 nM
C=CC(=O)Nc1cccc(-n2c(=O)n(-c3ccc(Oc4ccc(C(F)(F)F)cc4)c(Cl)c3)c3cnccc32)c1 [Example 111, N-(3-(3-(3-chloro-4-(4-(trifluoromethyl)phenoxy)phenyl)-2-oxo-2,3-dihydro-1H-imidazo[4,5-c]pyridin-1-yl)phenyl)acrylamide] | 1000 to 10000 nM
C=CC(=O)N1CCC(n2c(=O)n(-c3ccc(Oc4cccc(OC(F)(F)F)c4)cc3)c3cnccc32)C1 (stereo not drawn) [Example 112, 1-(1-acryloylpyrrolidin-3-yl)-3-(4-(3-(trifluoromethoxy)phenoxy)phenyl)-1H-imidazo[4,5-c]pyridin-2(3H)-one] | 10 to 100 nM
C=CC(=O)Nc1cccc(-n2c(=O)n(-c3ccc(Oc4cccc(OCC)c4)cc3)c3cnccc32)c1 [Example 113, N-(3-(3-(4-(3-ethoxyphenoxy)phenyl)-2-oxo-2,3-dihydro-1H-imidazo[4,5-c]pyridin-1-yl)phenyl)acrylamide] | 10 to 100 nM
C=CC(=O)Nc1cccc(-n2c(=O)n(-c3ccc(Oc4cccc(C(C)C)c4)cc3)c3cnccc32)c1 [Example 114, N-(3-(3-(4-(3-isopropylphenoxy)phenyl)-2-oxo-2,3-dihydro-1H-imidazo[4,5-c]pyridin-1-yl)phenyl)acrylamide] | 10 to 100 nM
C=CC(=O)Nc1cccc(-n2c(=O)n(-c3ccc(Oc4ccnc(C(=O)NC)c4)cc3)c3cnccc32)c1 [Example 115, 4-(4-(1-(3-acrylamidophenyl)-2-oxo-1H-imidazo[4,5-c]pyridin-3(2H)-yl)phenoxy)-N-methylpicolinamide] | 100 to 1000 nM
C=CC(=O)Nc1cccc(-n2c(=O)n(-c3ccc(Oc4ccccc4)cc3)c3cccnc32)c1 [Example 116, N-(3-(2-oxo-1-(4-phenoxyphenyl)-1H-imidazo[4,5-b]pyridin-3(2H)-yl)phenyl)acrylamide] | 100 to 1000 nM
C=CC(=O)N1CCC[C@@H](n2c(=O)n(-c3ccc(Oc4cccc(F)c4)cc3)c3cnccc32)C1 [Example 117, (R)-1-(1-acryloylpiperidin-3-yl)-3-(4-(3-fluorophenoxy)phenyl)-1H-imidazo [4,5-c]pyridin-2(3H)-one] | 10 to 100 nM
C=CC(=O)N1CCC[C@@H](n2c(=O)n(-c3ccc(Oc4cccc(OC)c4)cc3)c3cnccc32)C1 [Example 118, (R)-1-(1-acryloylpiperidin-3-yl)-3-(4-(3-methoxyphenoxy)phenyl)-1H-imidazo[4,5-c]pyridin-2(3H)-one] | 10 to 100 nM
C=CC(=O)Nc1cccc(-n2c(=O)n(-c3ccc(Oc4ccccc4)cc3)c3ncccc32)c1 [Example 119, N-(3-(2-oxo-3-(4-phenoxyphenyl)-2,3-dihydro-1H-imidazo[4,5-b]pyridin-1-yl)phenyl)acrylamide] | 1000 to 10000 nM
C=CC(=O)N1CC[C@@H](n2c(=O)n(-c3ccc(Oc4ccccc4)cc3)c3cccnc32)C1 [Example 120, (R)-3-(1-acryloylpyrrolidin-3-yl)-1-(4-phenoxyphenyl)-1H-imidazo[4,5-b]pyridin-2(3H)-one] | 1000 to 10000 nM
C=CC(=O)Nc1cccc(-n2c(=O)n(-c3ccc(Oc4ccccc4)cc3)c3ccncc32)c1 [Example 121, N-(3-(2-oxo-1-(4-phenoxyphenyl)-1H-imidazo[4,5-c]pyridin-3(2H)-yl)phenyl)acrylamide] | 100 to 1000 nM
